Results taken from patent publication US9580430B2, “9H-pyrimido[4,5-B]indoles and related analogs as BET bromodomain inhibitors” (THE REGENTS OF THE UNIVERSITY OF MICHIGAN, priority 2014, dated 2017).
Read-outs that look alike come from different tables or passages of the source.

Columns and labels:
MDA-MB-436 = assay: Cell growth inhibition, MDA-MB-436 breast cancer cells (WST-8); assay type: cell-based; details: Homo sapiens, 4 days
Method in brief: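 IC50 was computed from WST-8-based cell counting in MDA-MB-436 cells, with absorbance read at 450 nm.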

recombinant BRD4 BD2 = molecular target: T1, recombinant BRD4 BD2 (Homo sapiens, UniProt O60885); assay: Competitive fluorescence-polarization (FP) binding assay, BRD4 BD2; details: for Ki: read-out: Binding affinities (FP) BRD4BD2 Ki; as to IC50 (nM) BRD4 BD2: probe 1.5 nM
T1 construct: for recombinant BRD4 BD1 and BRD4 BD2 proteins
Method in brief: (§1)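 FP competition with FAM-labelled probe (ZBA248 or BRD-1F) against preincubated protein/probe complex; BD1 at 10 nM and BD2 at 6 nM final, in 100 mM potassium phosphate pH 6.5, 0.01% Triton X-100. 30 min, room temperature. IC50 by nonlinear regression; Ki also derived, using probe Kd from protein saturation.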

[1] = test system: VCaP prostate cancer cells; assay: Cell growth inhibition, VCaP prostate cancer cells (Cell-Titer GLO); assay type: cell-based; details: Homo sapiens, VCaP; 96 h incubation; read-out: IC50 (nM) VCaP Cell Line (CellTiter-Glo assay)
Description: For prostate cancer cell lines, VCaP prostate cancer cells were grown in DMEM with Glutamax (Gibco) supplemented with 10% FBS (Invitrogen) in 5% CO2 cell culture incubator. All cell lines were tested and found to be free of mycoplasma contamination. Cells were seeded in 96-well plates at 2,000-10,000 cells per well (optimum density for growth) in a total volume of […] media containing 10% FBS. Serially diluted compounds in […] media were added to the cells 12 h later. […] The values were normalized and IC50 was calculated using GraphPad Prism software.
Cells were seeded in 96-well plates at 2000-10,000 cells/well (optimum density for growth) in a total volume of 100 μl media containing 10% FBS. Serially diluted compounds in 100 μl media were added to the cells 12 h later. Following 96 h. incubation, cell viability was assessed by Cell-Titer GLO (Promega). The values were normalized and IC50 was calculated using GraphPad Prism software. […] After 12 days cells were fixed with methanol, stained with crystal violet and photographed. For colorimetric assays, the stained wells were treated with 500 μl 10% acetic acid and the absorbance was measured at 560 nm using a spectrophotometer.

MOLM-13 = assay: Cell growth inhibition, MOLM-13 leukemia cells (CellTiter-Glo); assay type: cell-based; details: Homo sapiens, MOLM-13, 96 h; 4 days; read-out: IC50 (nM) MOLM-13 Cell Line (CellTiter-Glo assay)
Method in brief: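 MOLM-13 leukemia cells treated with compounds; viability read by CellTiter-Glo luminescence after 10-20 min reagent incubation at room temperature. IC50 derived from luminescent signal.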

recombinant BRD4 BD1 = molecular target: T2, recombinant BRD4 BD1 (Homo sapiens, UniProt O60885); assay: Competitive fluorescence-polarization (FP) binding assay, BRD4 BD1; details: for Ki: read-out: Binding affinities (FP) BRD4BD1 Ki; as to IC50 (nM) BRD4 BD1: probe 1.5 nM
T2 construct: for recombinant BRD4 BD1 and BRD4 BD2 proteins
Method in brief: as §1

LNCaP = assay: Cell growth inhibition, LNCaP prostate cancer cells (Cell-Titer GLO); assay type: cell-based; details: Homo sapiens, read-out: Cellular data LNCaP IC50
[2] = MDA-MB-436, 96 h, read-out: IC50 (nM) MDA-MB-436 Cell Line (WST assay)
[3] = competitive FP assay, protein 6 nM, probe […], read-out: IC50 (nM) BRD4 BD2
[4] = competitive FP assay, protein 10 nM, probe […], read-out: IC50 (nM) BRD4 BD1
[5] = 96 h, MDA-MB-436 cells, read-out: Cellular data MDA-MB-436 IC50
[6] = FP competitive binding, BRD4 BD2, read-out: Binding affinities (FP) BRD4BD2 IC50
[7] = FP competitive binding, BRD4 BD2
[8] = FP competitive binding, BRD4 BD1, read-out: Binding affinities (FP) BRD4BD1 IC50
[9] = FP competitive binding, BRD4 BD1

SMILES	IC50 (MDA-MB-436; [2]) [nM]	IC50 (recombinant BRD4 BD2; [3]) [nM]	IC50 [1] [nM]	IC50 (MOLM-13) [nM]	IC50 (recombinant BRD4 BD1; [4]) [nM]	IC50 (MDA-MB-436; [5]) [nM]	IC50 (recombinant BRD4 BD2; [6]) [nM]	Ki (recombinant BRD4 BD2; [7]) [nM]	IC50 (LNCaP) [nM]	IC50 (recombinant BRD4 BD1; [8]) [nM]	Ki (recombinant BRD4 BD1; [9]) [nM]
COc1cc2c(cc1-c1c(C)noc1C)[nH]c1nc(C)nc(Nc3c(C)c(C)nn3C(C)(C)C)c12 [Cpd. No. 185, N-(1-(tert-butyl)-3,4-dimethyl-1H-pyrazol-5-yl)-7-(3,5-dimethylisoxazol-4-yl)-6-methoxy-2-methyl-9H-pyrimido[4,5-b]indol-4-amine]	71	12.3	64.7	17	4.9	–	–	–	–	–	–
COc1cc2c([nH]c3nc(C)nc(Nc4cc(C5CC5)nn4C)c32)c(F)c1-c1c(C)noc1C [Cpd. No. 307, N-(3-cyclopropyl-1-methyl-1H-pyrazol-5-yl)-7-(3,5-dimethylisoxazol-4-yl)-8-fluoro-6-methoxy-2-methyl-9H-pyrimido[4,5-b]indol-4-amine]	–	–	–	–	–	130	18	4.3	59	16	3.8
COc1cc2c(cc1-c1c(C)noc1C)[nH]c1nc(C)nc(Nc3c4c(nn3C(C)C)CCC4)c12 [Cpd. No. 137, 7-(3,5-Dimethylisoxazol-4-yl)-N-(2-isopropyl-2,4,5,6-tetrahydrocyclopenta[c]pyrazol-3-yl)-6-methoxy-2-methyl-9H-pyrimido[4,5-b]indol-4-amine]	11.3	1.2	23.4	4.3	4.5	–	–	–	–	–	–
COc1cc2c(cc1-c1c(C)noc1C)[nH]c1nc(C)nc(Nc3cc(C4CC4)nn3CCN3CCOCC3)c12 [Cpd. No. 284, N-(3-cyclopropyl-1-(2-morpholinoethyl)-1H-pyrazol-5-yl)-7-(3,5-dimethylisoxazol-4-yl)-6-methoxy-2-methyl-9H-pyrimido[4,5-b]indol-4-amine]	–	–	–	–	–	268	10.6	2.6	105	10	3
CCn1nc(C2CC2)cc1Nc1nc(C)nc2[nH]c3cc(-c4c(C)noc4C)c(OC)cc3c12 [Cpd. No. 144, N-(3-Cyclopropyl-1-ethyl-1H-pyrazol-5-yl)-7-(3,5-dimethylisoxazol-4-yl)-6-methoxy-2-methyl-9H-pyrimido[4,5-b]indol-4-amine]	14.5	0.7	53.8	3	2.1	–	–	–	–	–	–
COc1cc2c(cc1-c1c(C)noc1C)[nH]c1nc(C)nc(Nc3cc(C4CC4)nn3CC3COCCO3)c12 (stereo not shown) [Cpd. No. 282, N-(1-((1,4-dioxan-2-yl)methyl)-3-cyclopropyl-1H-pyrazol-5-yl)-7-(3,5-dimethylisoxazol-4-yl)-6-methoxy-2-methyl-9H-pyrimido[4,5-b]indol-4-amine]	–	–	–	–	–	33	0.5	1	22	6.1	1.3
COc1cc2c([nH]c3ccnc(Nc4cc(C5CC5)nn4C)c32)c(F)c1-c1c(C)noc1C [Cpd. No. 309, N-(3-cyclopropyl-1-methyl-1H-pyrazol-5-yl)-7-(3,5-dimethylisoxazol-4-yl)-6-fluoro-8-methoxy-5H-pyrido[4,3-b]indol-1-amine]	–	–	–	–	–	141	40	13	136	18	4.1
COCCOCc1nc(Nc2cc(C3CC3)nn2C)c2c(n1)[nH]c1cc(-c3c(C)noc3C)c(OC)cc12 [Cpd. No. 288, N-(3-cyclopropyl-1-methyl-1H-pyrazol-5-yl)-7-(3,5-dimethylisoxazol-4-yl)-6-methoxy-2-((2-methoxyethoxy)methyl)-9H-pyrimido[4,5-b]indol-4-amine]	–	–	–	–	–	13	1.6	< 1	37	4.9	< 1
COCCc1nc(Nc2cc(C3CC3)nn2C)c2c(n1)[nH]c1cc(-c3c(C)noc3C)c(OC)cc12 [Cpd. No. 287, N-(3-cyclopropyl-1-methyl-1H-pyrazol-5-yl)-7-(3,5-dimethylisoxazol-4-yl)-6-methoxy-2-(2-methoxyethyl)-9H-pyrimido[4,5-b]indol-4-amine]	–	–	–	–	–	58	1.4	< 1	81	3.1	< 1
COc1cc2c(cc1-c1c(C)noc1C)[nH]c1nc(N)nc(Nc3cc(C4CC4)nn3C3CC3)c12 [Cpd. No. 291, N4-(1,3-dicyclopropyl-1H-pyrazol-5-yl)-7-(3,5-dimethylisoxazol-4-yl)-6-methoxy-9H-pyrimido[4,5-b]indole-2,4-diamine]	–	–	–	–	–	37	4.9	1	20	5.2	1.5
COc1cc2c(cc1-c1c(C)noc1C)[nH]c1nc(CS(C)(=O)=O)nc(Nc3cc(C4CC4)nn3C)c12 [Cpd. No. 289, N-(3-cyclopropyl-1-methyl-1H-pyrazol-5-yl)-7-(3,5-dimethylisoxazol-4-yl)-6-methoxy-2-((methylsulfonyl)methyl)-9H-pyrimido[4,5-b]indol-4-amine]	–	–	–	–	–	57	2.2	< 1	130	2.4	< 1
COc1cc2c(cc1-c1c(C)noc1C)[nH]c1nc(C)nc(Nc3cc(C4CC4)nn3C[C@H](O)CO)c12 [Cpd. No. 281]	–	–	–	–	–	351	3.6	5.7	116	6.1	2
COc1nc2c(cc1-c1c(C)noc1C)[nH]c1nc(C)nc(Nc3cc(C4CC4)nn3C)c12 [compound 322, N-(3-cyclopropyl-1-methyl-1H-pyrazol-5-yl)-7-(3,5-dimethylisoxazol-4-yl)-6-methoxy-2-methyl-9H-pyrido[2′,3′:4,5]pyrrolo[2,3-d] pyrimidin-4-amine]	–	–	–	–	–	646	214	67	674	199	68
CCn1nc(C2CC2)cc1Nc1nc(N)nc2[nH]c3cc(-c4c(C)noc4C)c(OC)cc3c12 [Cpd. No. 290, N4-(3-cyclopropyl-1-ethyl-1H-pyrazol-5-yl)-7-(3,5-dimethylisoxazol-4-yl)-6-methoxy-9H-pyrimido[4,5-b]indole-2,4-diamine]	–	–	–	–	–	19	4.5	< 1	12	4.8	< 1
COc1cc2c(cc1-c1c(C)noc1C)[nH]c1nc(N)nc(Nc3c4c(nn3C(C)C)CCC4)c12 [Cpd. No. 292, 7-(3,5-dimethylisoxazol-4-yl)-N4-(2-isopropyl-2,4,5,6-tetrahydrocyclopenta[c]pyrazol-3-yl)-6-methoxy-9H-pyrimido[4,5-b]indole-2,4-diamine]	–	–	–	–	–	12	2.3	< 1	7	2	< 1
CCn1nc2c(c1Nc1nc(C)nc3[nH]c4cc(-c5c(C)noc5C)c(OC)cc4c13)CCC2 [Cpd. No. 141, 7-(3,5-Dimethylisoxazol-4-yl)-N-(2-ethyl-2,4,5,6-tetrahydrocyclopenta[c]pyrazol-3-yl)-6-methoxy-2-methyl-9H-pyrimido[4,5-b]indol-4-amine]	13.6	1.1	19.3	1.6	4.6	–	–	–	–	–	–
COc1c(-c2c(C)noc2C)cc2[nH]c3nc(C)nc(Nc4cc(C5CC5)nn4C)c3c2c1F [Cpd. No. 305]	–	–	–	–	–	1190	850	342	1160	> 5000	–
